The values below are quoted from earlier work in US8008299B2, “Urotensin II receptor antagonists” (Janssen Pharmaceutica, N.V., priority 2007, dated 2011).

Data set [1] concerns the target T1, rU-II (Rattus norvegicus, UniProt P49684).
T1 sequence (P49684 1-386): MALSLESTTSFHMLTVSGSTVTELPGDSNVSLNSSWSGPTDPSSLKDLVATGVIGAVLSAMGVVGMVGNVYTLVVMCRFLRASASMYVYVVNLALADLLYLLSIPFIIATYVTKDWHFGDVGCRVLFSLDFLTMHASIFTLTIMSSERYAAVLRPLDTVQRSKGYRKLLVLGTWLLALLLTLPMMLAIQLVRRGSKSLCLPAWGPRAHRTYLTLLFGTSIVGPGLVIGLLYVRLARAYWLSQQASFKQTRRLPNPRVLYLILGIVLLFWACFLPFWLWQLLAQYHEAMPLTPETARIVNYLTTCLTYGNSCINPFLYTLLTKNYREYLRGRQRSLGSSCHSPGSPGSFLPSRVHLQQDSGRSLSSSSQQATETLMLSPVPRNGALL
To be noted: cited from earlier work.

Data set [2] has as its target T2, rat GPR14 (U-II receptor) (Rattus norvegicus, UniProt P49684).
T2 construct: expressed in transfected cells
T2 sequence (P49684 1-386): T1 sequence (P49684 1-386)
To be noted: agonist activity of the cyclic peptide used as agonist; read-out: FLIPR EC50; cited from earlier work.

For (Ac)-CFWK(2-NaI)C—NH2, in data set [1], the Ki was 0.12 ± 0.05 nM. In addition, the EC50 in data set [2] is 0.54 ± 0.2 nM.
